Patent US12258317B2, “Isoquinolinone compound for inhibiting ssao/vap-1, and use thereof” (SUNSHINE LAKE PHARMA CO., LTD., priority 2019, dated 2025)
Structures can show the parent of a compound that is named as a salt.

Assays:
Human recombinant DAO = Human recombinant DAO (Homo sapiens (Human), UniProt P19801); experiment: Determination of selective inhibition of DAO (diamine oxidase) (Amplex Red, 1,4-diaminobutane substrate); type: biochemical; conditions: 30 min pre-incubation at 37° C.
From the text: 2. Determination of Selective Inhibition of DAO (Diamine Oxidase)
Test purpose: The following method is used to determine the selective inhibitory activity of the compound of the present invention on DAO.
• Human recombinant DAO (Recombinant Human ABP-1/DAO) was purchased from R&D, Cat. No. 8298-AO; • Amplex® Red Hydrogen PeroxidePeroxidase Assay Kit was purchased from Invitrogen, Cat. No. A22188; • 1,4-Diaminobutane dihydrochloride was purchased from Aladdin, Cat. No. D106194-25G. Test Method:
The test compound was dissolved in DMSO and diluted 5 times to a total of 6 concentrations. In a 384-well plate, 24 μL of human recombinant DAO (1 μg/mL) was added into each well. 1 μL of test compounds at different concentrations were added to each well containing human recombinant DAO, and the plate was incubated at 37° C. for 30 min. After incubating for 30 min, 25 μL of Amplex® Red Hydrogen Peroxide Peroxidase Assay Kit (containing 100 μM Amplex® Red and 0.2 U/ml HRP) containing 1 M 1,4-butanediamine dihydrochloride was added into the corresponding wells, and the plate was incubated in the dark at 37° C. for 30 min. After 30 min, PHERAstar FSX microplate reader of BMG LABTECH was used to read the fluorescence value (RFU) under excitation at 540 nm and emission at 580 nm. The graph was drawn using Graph Pad Prism 5 software to calculate the IC50 value.

[1] = molecular target: human recombinant SSAO/VAP-1 (Homo sapiens (Human), UniProt Q16853); experiment: Determination of inhibitory activity of human recombinant SSAO/VAP-1 (Amplex Red, benzylamine substrate); type: biochemical; conditions: 30 min pre-incubation at room temperature; read-out: SSAO/VAP-1 (Human Recombinant Protein) IC50
From the text: 1. Determination of Inhibitory Activity of Human Recombinant SSAO/VAP-1
Test purpose: The following method is used to determine the inhibitory activity of the compounds in the examples of the present invention on human recombinant SSAO/VAP-1.
• Human recombinant SSAO/VAP-1 (VAP-1, human) was purchased from Sigma, Cat. No. SRP6241; • Amplex® Red Monoamine Oxidase Assay Kit was purchased from Invitrogen, Cat. No. A12214; • 384-well plate was purchased from Corning, Cat. No. 6005174; • Amplex® Red Hydrogen PeroxidePeroxidase Assay Kit was purchased from Invitrogen, Cat. No. A22188.
Benzylamine hydrochloride was purchased from Sigma, Cat. No. B5136-25G; • DMSO (Dimethyl Sulfoxide) was purchased from Sigma, Cat. No. D2650-100ML; Test Method:
The test compound was dissolved in DMSO and diluted 4 times to a total of 10 concentrations. In a 384-well plate, 25 μL of human recombinant SSAO/VAP-1 (1.6 μg/mL) was added into each well. 100 nL of test compounds at different concentrations were added to each well containing human recombinant SSAO/VAP-1, and the plate was incubated at room temperature for 30 min. After incubating for 30 min, 25 μL of Amplex® Red Monoamine Oxidase Assay Kit (a reaction mixture containing 200 μM Amplex Red reagent, 1 U/mL HRP and 1 mM benzylamine hydrochloride) was added into the corresponding wells, and the plate was incubated at room temperature in the dark for 60 min. After 60 min, PerkinElmer's Envision was used to read the fluorescence value (RFU) under excitation at 530-560 nm and emission at 590 nm. The graph was drawn using Graph Pad Prism 5 software to calculate the IC50 value.

Chain of human recombinant SSAO/VAP-1 (Q16853 whole entry): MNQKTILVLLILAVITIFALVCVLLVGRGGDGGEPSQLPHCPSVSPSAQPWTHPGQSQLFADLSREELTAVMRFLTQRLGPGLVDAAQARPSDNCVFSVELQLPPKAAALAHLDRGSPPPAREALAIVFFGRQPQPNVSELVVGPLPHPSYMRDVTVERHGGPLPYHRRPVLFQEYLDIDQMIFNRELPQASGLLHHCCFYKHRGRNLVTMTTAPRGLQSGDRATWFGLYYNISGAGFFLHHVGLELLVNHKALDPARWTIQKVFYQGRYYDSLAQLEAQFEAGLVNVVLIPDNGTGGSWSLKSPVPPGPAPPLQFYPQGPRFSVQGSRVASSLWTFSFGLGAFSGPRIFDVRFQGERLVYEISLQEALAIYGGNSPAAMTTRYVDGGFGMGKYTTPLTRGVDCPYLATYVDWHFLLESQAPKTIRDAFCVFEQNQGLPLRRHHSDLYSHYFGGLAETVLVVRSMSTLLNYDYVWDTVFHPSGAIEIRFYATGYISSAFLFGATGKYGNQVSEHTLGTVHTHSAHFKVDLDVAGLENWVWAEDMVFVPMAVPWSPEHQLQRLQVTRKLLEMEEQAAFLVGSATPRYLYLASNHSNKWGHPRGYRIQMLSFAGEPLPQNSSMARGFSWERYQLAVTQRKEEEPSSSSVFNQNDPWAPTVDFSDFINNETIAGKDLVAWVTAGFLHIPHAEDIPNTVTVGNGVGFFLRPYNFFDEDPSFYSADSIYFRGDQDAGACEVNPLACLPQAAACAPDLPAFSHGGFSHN
Chain of Human recombinant DAO (P19801 20-751): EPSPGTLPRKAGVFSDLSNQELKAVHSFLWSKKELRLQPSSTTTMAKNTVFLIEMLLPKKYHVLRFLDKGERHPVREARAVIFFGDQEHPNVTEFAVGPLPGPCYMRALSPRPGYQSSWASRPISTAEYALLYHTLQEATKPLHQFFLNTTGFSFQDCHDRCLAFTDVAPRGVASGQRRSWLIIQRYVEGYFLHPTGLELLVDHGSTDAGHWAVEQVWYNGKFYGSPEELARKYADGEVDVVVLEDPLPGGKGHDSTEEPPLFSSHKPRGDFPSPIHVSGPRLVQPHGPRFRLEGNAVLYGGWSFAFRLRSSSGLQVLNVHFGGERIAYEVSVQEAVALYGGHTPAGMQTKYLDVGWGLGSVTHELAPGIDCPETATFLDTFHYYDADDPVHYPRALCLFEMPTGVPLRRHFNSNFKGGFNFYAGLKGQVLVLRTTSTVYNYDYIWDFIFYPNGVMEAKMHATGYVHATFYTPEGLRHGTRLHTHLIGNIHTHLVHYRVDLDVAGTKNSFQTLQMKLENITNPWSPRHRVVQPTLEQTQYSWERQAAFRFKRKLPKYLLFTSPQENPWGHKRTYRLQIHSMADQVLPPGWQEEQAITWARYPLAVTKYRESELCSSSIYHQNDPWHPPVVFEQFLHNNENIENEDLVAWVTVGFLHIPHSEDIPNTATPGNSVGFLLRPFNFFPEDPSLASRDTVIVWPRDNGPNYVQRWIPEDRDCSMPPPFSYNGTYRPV

SMILES | IC50 (Human recombinant DAO) [nM] | IC50 [1] [nM]
CNC(=O)CN1CCc2cc(OC/C(=C/F)CN)ccc2C1=O [Example 3, 2-[6-[(E)-2-(aminomethyl)-3-fluoro-allyloxy]-1-oxo-3,4-dihydroisoquinolin-2-yl]-N-methyl-acetamide hydrochloride] | > 100 | –
CNC(=O)CN1CCc2cc(OC/C(=C\F)CN)ccc2C1=O [Example 4, 2-[6-[(Z)-2-(aminomethyl)-3-fluoro-allyloxy]-1-oxo-3,4-dihydroisoquinolin-2-yl]-N-methyl-acetamide hydrochloride] | – | 3.7
CCNC(=O)CN1CCc2cc(OC/C(=C/F)CN)ccc2C1=O [Example 5, 2-[6-[(E)-2-(aminomethyl)-3-fluoro-allyloxy]-1-oxo-3,4-dihydroisoquinolin-2-yl]-N-ethyl-acetamide hydrochloride] | > 100 | –
CC(C)NC(=O)CN1CCc2cc(OC/C(=C/F)CN)ccc2C1=O [Example 9, 2-[6-[(E)-2-(aminomethyl)-3-fluoro-allyloxy]-1-oxo-3,4-dihydroisoquinolin-2-yl]-N-isopropyl-acetamide hydrochloride] | > 1000 | –
CC(C)CNC(=O)CN1CCc2cc(OC/C(=C/F)CN)ccc2C1=O [Example 11, 2-[6-[(E)-2-(aminomethyl)-3-fluoro-allyloxy]-1-oxo-3,4-dihydroisoquinolin-2-yl]-N-isobutyl-acetamide hydrochloride] | > 100 | –
NC/C(=C\F)COc1ccc2c(c1)CCN(CC(=O)NCC(F)(F)F)C2=O [Example 13, 2-[6-[(E)-2-(aminomethyl)-3-fluoro-allyloxy]-1-oxo-3,4-dihydroisoquinolin-2-yl]-N-(2,2,2-trifluoroethyl)acetamide hydrochloride] | > 100 | –
CS(=O)(=O)CCNC(=O)CN1CCc2cc(OC/C(=C/F)CN)ccc2C1=O [Example 18, 2-[6-[(E)-2-(aminomethyl)-3-fluoro-allyloxy]-1-oxo-3,4-dihydroisoquinolin-2-yl]-N-(2-methanesulfonylethyl)acetamide hydrochloride] | > 1000 | 8.66
NC/C(=C\F)COc1ccc2c(c1)CCN(CC(=O)NC1CC(F)(F)C1)C2=O [Example 19, 2-[6-[(E)-2-(aminomethyl)-3-fluoro-allyloxy]-1-oxo-3,4-dihydroisoquinolin-2-yl]-N-(3,3-difluorocyclobutyl)-acetamide hydrochloride] | > 1000 | 4.01
COCCNC(=O)CN1CCc2cc(OC/C(=C/F)CN)ccc2C1=O [Example 22, 2-[6-[(E)-2-(aminomethyl)-3-fluoro-allyloxy]-1-oxo-3,4-dihydroisoquinolin-2-yl]-N-(2-methoxyethyl)acetamide hydrochloride] | > 100 | –
CCOP(=O)(CCN1CCc2cc(OC/C(=C/F)CN)ccc2C1=O)OCC [Example 24, 6-[(E)-2-(aminomethyl)-3-fluoro-allyloxy]-2-(2-diethoxyphosphorylethyl)-3,4-dihydroisoquinoline-1-one hydrochloride] | > 100 | 3.67
CS(=O)(=O)CCN1CCc2cc(OC/C(=C/F)CN)ccc2C1=O [Example 25, 6-[(E)-2-(aminomethyl)-3-fluoro-allyloxy]-2-(2-methylsulfonylethyl)-3,4-dihydroisoquinoline-1-one hydrochloride] | > 100 | 3.38

More lines, now with the values ahead:

IC50 (Human recombinant DAO) [nM] | IC50 [1] [nM] | SMILES
– | 4.12 | CCNC(=O)CN1CCc2cc(OC/C(=C\F)CN)ccc2C1=O [Example 6, 2-[6-[(Z)-2-(aminomethyl)-3-fluoro-allyloxy]-1-oxo-3,4-dihydroisoquinolin-2-yl]-N-ethyl-acetamide hydrochloride]
> 1000 | 11.1 | CN(C)C(=O)CN1CCc2cc(OC/C(=C/F)CN)ccc2C1=O [Example 7, 2-[6-[(E)-2-(aminomethyl)-3-fluoro-allyloxy]-1-oxo-3,4-dihydroisoquinolin-2-yl]-N, N-dimethyl-acetamide hydrochloride]
– | 1 | CN(C)C(=O)CN1CCc2cc(OC/C(=C\F)CN)ccc2C1=O [Example 8, 2-[6-[(Z)-2-(aminomethyl)-3-fluoro-allyloxy]-1-oxo-3,4-dihydroisoquinolin-2-yl]-N,N-dimethyl-acetamide hydrochloride]
> 100 | – | CC(C)(C)NC(=O)CN1CCc2cc(OC/C(=C/F)CN)ccc2C1=O [Example 15, 2-[6-[(E)-2-(aminomethyl)-3-fluoro-allyloxy]-1-oxo-3,4-dihydroisoquinolin-2-yl]-N-tert-butyl-acetamide hydrochloride]
> 100 | – | NC/C(=C\F)COc1ccc2c(c1)CCN(CC(=O)NC1CC1)C2=O [Example 16, 2-[6-[(E)-2-(aminomethyl)-3-fluoro-allyloxy]-1-oxo-3,4-dihydroisoquinolin-2-yl]-N-cyclopropyl-acetamide hydrochloride]
> 100 | – | NC/C(=C\F)COc1ccc2c(c1)CCN(CC(=O)NC1CCC1)C2=O [Example 17, 2-[6-[(E)-2-(aminomethyl)-3-fluoro-allyloxy]-1-oxo-3,4-dihydroisoquinolin-2-yl]-N-cyclobutyl-acetamide hydrochloride]
> 100 | – | NC/C(=C\F)COc1ccc2c(c1)CCN(CC(=O)N1CCCC1)C2=O [Example 20, 6-[(E)-2-(aminomethyl)-3-fluoro-allyloxy]-2-(2-oxo-2-pyrrolidin-1-yl-ethyl)-3,4-dihydroisoquinoline-1-one hydrochloride]
> 1000 | 11.8 | CCCNC(=O)CN1CCc2cc(OC/C(=C/F)CN)ccc2C1=O [Example 21, 2-[6-[(E)-2-(aminomethyl)-3-fluoro-allyloxy]-1-oxo-3,4-dihydroisoquinolin-2-yl]-N-propyl-acetamide hydrochloride]
